The record followed here is ChEMBL document CHEMBL3046381, “Synthesis and Fungicidal Activity of New Six-membered Cyclic Phosphates” (1995).

Assay type in all cases: functional
Experiment [1] concerns Pythium. Kind of experiment: Growth inhibition of Pythium sp. at 1000 ppm by agar dilution method. As to conditions: read-out: GI. (In general: Agar dilution tests growth on a series of plates holding different concentrations.)
Experiment [2] deals with Pythium. Put plainly: Growth inhibition of Pythium sp. at 100 ppm by agar dilution method. Particulars: read-out: GI.
For experiment [3], the system named is Athelia rolfsii. Kind of experiment: Growth inhibition of Athelia rolfsii at 1000 ppm by agar dilution method. As to conditions: Agroathelia rolfsii; read-out: GI.
Experiment [4] relates to Athelia rolfsii. Put plainly: Growth inhibition of Athelia rolfsii at 100 ppm by agar dilution method. Particulars: Agroathelia rolfsii; read-out: GI.
Experiment [5] concerns Athelia rolfsii. Kind of experiment: Growth inhibition of Athelia rolfsii at 10 ppm by agar dilution method. Particulars: Agroathelia rolfsii; read-out: GI.
The test system of experiment [6] is Pythium. Kind of experiment: Growth inhibition of Pythium sp. at 10 ppm by agar dilution method. As to conditions: read-out: GI.
In experiment [7] the test system is Pythium. Put plainly: Growth inhibition of Pythium sp. at 50 ppm by agar dilution method. As to conditions: read-out: GI.
Experiment [8] concerns Athelia rolfsii. Kind of experiment: Growth inhibition of Athelia rolfsii at 50 ppm by agar dilution method. Particulars: Agroathelia rolfsii; read-out: GI.

Turning to `CC(C)c1ccc2c(c1)COP(=S)(OCCc1ccccc1)O2` (stereo not given), the inhibition of growth at 1000 ppm in the experiment on Pythium [1] and with Athelia rolfsii [3] was 100% throughout. Also, the inhibition of growth at 100 ppm amounted to 74.6% in the experiment with Pythium [2] and 30.6% in the experiment with Athelia rolfsii [4].
Consider `CC(C)=CCCC(C)CCOP1(=S)OCc2ccccc2O1` (stereo not given), for which the inhibition of growth at 1000 ppm is 96% in the experiment with Pythium [1] and 100% in the experiment with Athelia rolfsii [3]. The inhibition of growth at 100 ppm with Pythium [2] came out at 38.8%; with Athelia rolfsii [4] it was 36.6%.
The corresponding values for `C=CCc1ccc(OP2(=S)OCc3cc(C(C)C)ccc3O2)c(OC)c1` (stereo not given) are 83.9%, 71.2%, 22.9% and 18.8%.
As for `Cc1ccc(OP2(=S)OCc3ccccc3O2)c(C(C)C)c1` (stereo not given), the inhibition of growth at 1000 ppm in the experiment with Pythium [1] turned out to be 80.8%; with Athelia rolfsii [3], 83.3%. For the same molecule, the inhibition of growth at 100 ppm in the experiment with Pythium [2] came to 0%; with Athelia rolfsii [4], 37.3%.
Turning to `Cc1ccc(C(C)C)c(OP2(=S)OCc3ccccc3O2)c1` (stereo not given), the results for the inhibition of growth at 1000 ppm with Pythium [1] and in the experiment with Athelia rolfsii [3] were 100% and 99.8%, respectively. Also, the results for the inhibition of growth at 100 ppm in the experiment with Pythium [2] and in the experiment on Athelia rolfsii [4] were 45.2% and 27.7%, respectively.
`Cc1ccc(C(C)C)c(OP2(=S)OCc3ccccc3O2)c1Cl` (stereo not given): the inhibition of growth at 1000 ppm with Pythium [1] was found to be 97.4%; with Athelia rolfsii [3] it was 85.5%. Further, the inhibition of growth at 100 ppm was 27.9% in the experiment with Pythium [2] and 12.3% with Athelia rolfsii [4].
On the same counts, the results for `C=CCc1ccc(OP2(=S)OCc3ccccc3O2)c(OC)c1` (stereo not given) are 87.4%, 100%, 28.6% and 25.5%.
On the same counts, the results for `O=P1(Oc2ccccc2)OCc2ccccc2O1` (stereo not given) are 100%, 88.7%, 76% and 2.1%.
Take `S=P1(OCCc2ccccc2)OCc2ccccc2O1` (stereo not given): the inhibition of growth at 1000 ppm in the experiment with Pythium [1] and in the experiment on Athelia rolfsii [3] was 100% each time. Also, the inhibition of growth at 100 ppm in the experiment on Pythium [2] is 70.1%; in the experiment on Athelia rolfsii [4], 81.6%.
Take `CCCCCCCOP1(=S)OCc2ccccc2O1` (stereo not given): the inhibition of growth at 1000 ppm in the experiment with Pythium [1] and in the experiment with Athelia rolfsii [3] was 100% throughout. For the same molecule, the inhibition of growth at 100 ppm turned out to be 42.4% in the experiment on Pythium [2] and 52.6% with Athelia rolfsii [4].
In the case of `CCCCCCCCCCCOP1(=S)OCc2ccccc2O1` (stereo not given), the inhibition of growth at 1000 ppm stood at 100% with Pythium [1] and 88.1% in the experiment with Athelia rolfsii [3]. Also, the inhibition of growth at 100 ppm in the experiment with Pythium [2] worked out at 0%; in the experiment on Athelia rolfsii [4], 25%.
On the same counts, the results for `CCCCCCCCCCCCCOP1(=S)OCc2ccccc2O1` (stereo not given) are 100%, 100%, 6.3% and 3.1%.
On to `CCCCCCCCCCCCCCCOP1(=S)OCc2ccccc2O1` (stereo not given), for which the inhibition of growth at 1000 ppm stood at 86% in the experiment on Pythium [1] and 32.3% in the experiment with Athelia rolfsii [3]. Besides, the inhibition of growth at 100 ppm is 24.9% in the experiment with Pythium [2] and 6% in the experiment with Athelia rolfsii [4].
For `CCc1ccc2c(c1)COP(=S)(OC)O2` (stereo not given), the inhibition of growth at 1000 ppm in the experiment with Pythium [1] worked out at 96%; in the experiment with Athelia rolfsii [3], 100%. Further, the figures for the inhibition of growth at 10 ppm in the experiment with Athelia rolfsii [5] and with Pythium [6] were 24.6% and 1.9%, respectively. In addition, the inhibition of growth at 100 ppm came to 91.1% with Pythium [2] and 100% in the experiment with Athelia rolfsii [4]. The inhibition of growth at 50 ppm in the experiment on Pythium [7] is 64.4%; with Athelia rolfsii [8], 92.4%.
Take `CCc1ccc2c(c1)COP(=O)(Oc1ccccc1)O2` (stereo not given): the inhibition of growth at 1000 ppm with Pythium [1] was 98.7%; in the experiment with Athelia rolfsii [3], 100%. Moreover, the values for the inhibition of growth at 10 ppm in the experiment with Athelia rolfsii [5] and with Pythium [6] were 26.6% and 38.5%, respectively. The inhibition of growth at 100 ppm in the experiment with Pythium [2] was 89.1%; in the experiment on Athelia rolfsii [4] it was 100%. For the same molecule, the inhibition of growth at 50 ppm with Pythium [7] was determined as 78.6%; in the experiment with Athelia rolfsii [8], 57.6%.
In the case of `CCc1ccc2c(c1)COP(=S)(Oc1ccc(C)cc1C(C)C)O2` (stereo not given), the inhibition of growth at 1000 ppm in the experiment with Pythium [1] and with Athelia rolfsii [3] was 100% in each case. The values for the inhibition of growth at 100 ppm with Pythium [2] and in the experiment on Athelia rolfsii [4] were 49.5% and 88.6%, respectively.
As for `CCc1ccc2c(c1)COP(=S)(Oc1cc(C)ccc1C(C)C)O2` (stereo not given), the values for the inhibition of growth at 1000 ppm in the experiment on Pythium [1] and in the experiment on Athelia rolfsii [3] were 96.8% and 100%, respectively. In addition, the inhibition of growth at 100 ppm with Pythium [2] amounted to 41.7%; with Athelia rolfsii [4], 30.4%.
Take `CCc1ccc2c(c1)COP(=S)(OCCc1ccccc1)O2` (stereo not given): the inhibition of growth at 1000 ppm in the experiment with Pythium [1] and in the experiment on Athelia rolfsii [3] was 100% each time. For the same molecule, the inhibition of growth at 100 ppm in the experiment with Pythium [2] amounted to 95.4%; in the experiment on Athelia rolfsii [4] it was 57%.
Take `COP1(=S)OCc2cc(C(C)C)ccc2O1` (stereo not given): the inhibition of growth at 1000 ppm with Pythium [1] came out at 82.6%; in the experiment on Athelia rolfsii [3] it was 100%. For the same molecule, the inhibition of growth at 10 ppm is 62% in the experiment with Athelia rolfsii [5] and 0% in the experiment on Pythium [6]. For the same molecule, the inhibition of growth at 100 ppm in the experiment on Pythium [2] turned out to be 71.1%; with Athelia rolfsii [4], 96.9%. Also, the inhibition of growth at 50 ppm in the experiment with Pythium [7] worked out at 50%; in the experiment with Athelia rolfsii [8], 92.5%.
Take `Cc1ccc(OP2(=S)OCc3cc(C(C)C)ccc3O2)c(C(C)C)c1` (stereo not given): the inhibition of growth at 1000 ppm was 85.9% in the experiment with Pythium [1] and 71.3% in the experiment with Athelia rolfsii [3]. Besides, the inhibition of growth at 100 ppm in the experiment with Pythium [2] turned out to be 26.8%; in the experiment on Athelia rolfsii [4], 62.5%.
With `Cc1ccc(C(C)C)c(OP2(=S)OCc3cc(C(C)C)ccc3O2)c1` (stereo not given), the values for the inhibition of growth at 1000 ppm in the experiment on Pythium [1] and in the experiment on Athelia rolfsii [3] were 85.9% and 84.6%, respectively. The figures for the inhibition of growth at 100 ppm in the experiment on Pythium [2] and with Athelia rolfsii [4] were 33.8% and 61.9%, respectively.
In the case of `COP1(=S)OCc2ccccc2O1` (stereo not given) [SALITHION], the inhibition of growth at 1000 ppm with Pythium [1] and in the experiment with Athelia rolfsii [3] was 100% in each case. Also, the inhibition of growth at 100 ppm is 74.8% in the experiment with Pythium [2] and 60.7% in the experiment with Athelia rolfsii [4].
